# According to patent US4011221A, “S-Inosylcysteine and a process for producing the same” (Funai Pharmaceutical Industries, Ltd., priority 1974, dated 1977):
# Key:
# [1] = test system: chick embryo heart cells; assay: Effect on proliferation of chick embryo heart cells in the presence of a growth inhibitor, KCN (Experiments 3 and 4); assay type: cell-based; settings: KCN 1.7 μg per ml; for activity at 50 µg/mL / activity at 20 µg/mL: Gallus gallus; for activity at 20 µg/mL: 24 h
# Protocol: After washing with calcium and magnesium-free phosphate buffered saline (PBS), the pieces of hearts were treated with a solution of 0.1% trypsin in PBS freed from calcium and magnesium ions, and the supernatant fraction was discarded. The residue was treated with a solution of 0.1% trypsin in PBS freed from calcium and magnesium ions, and the supernatant fractions containing isolated cells were collected. The procedure was repeated 3 times. The supernatant fractions were combined and diluted with cold culture medium containing 10% fetal calf serum, sodium penicillin G (100 units per ml) and sulfate streptomycin (1 μg per ml), and centrifuged at 150 xG. […] One ml of the suspension was poured into each of 28 culture tubes which were equally divided into 7 groups. The cells were cultured at 37° C in an incubator. After 1 day of incubation the culture medium of the tubes was removed and 1 ml of each culture medium containing compound shown in Table I was added thereto. After additional 3 days of incubation the culture medium was removed and the cells were then treated with 1 ml of 0.1 M citric acid containing 0.1% crystal violet. The number of cells was counted with a hemocytometer in quadruplicate after vigorous shaking. […] After 3 days of incubation, the culture medium was removed and 1 ml of each culture medium containing compounds shown in Table II was added thereto. After an additional 1 day of incubation the number of cells was counted. […] Method: The culture procedure for chick embryo heart cells was employed as described in Experiment 1. After one day of incubation, the culture medium was removed and 1 ml of each culture medium containing KCN (1.7 μg per ml) and compounds shown in Table III were added thereto.
# [2] = test system: chick embryo heart cells; assay: Effect on proliferation of chick embryo heart cells (Experiments 1 and 2); assay type: cell-based; settings: for Cell number ± S.E. / activity at 20 µg/mL: Experiment 2, 20 μg/ml; for Cell number ± S.E.: 1 day with compound after 3 days of incubation; for activity at 20 µg/mL: 24 h, read-out: Growth rate (%)
# Protocol: A. Effect of S-inosylcysteine on proliferation of chick embryo heart cells.
# (§1) Method: The hearts excised from 13-day-old chick embryos were cut into pieces 1 to 2 mm in diameter under sterile conditions. After washing with calcium and magnesium-free phosphate buffered saline (PBS), the pieces of hearts were treated with a solution of 0.1% trypsin in PBS freed from calcium and magnesium ions, and the supernatant fraction was discarded. The residue was treated with a solution of 0.1% trypsin in PBS freed from calcium and magnesium ions, and the supernatant fractions containing isolated cells were collected. The procedure was repeated 3 times. The supernatant fractions were combined and diluted with cold culture medium containing 10% fetal calf serum, sodium penicillin G (100 units per ml) and sulfate streptomycin (1 μg per ml), and centrifuged at 150 xG. The resulting pellet was washed twice with the culture medium and diluted cautiously with the same culture medium to give a suspension which contains 200,000 cells per ml. One ml of the suspension was poured into each of 28 culture tubes which were equally divided into 7 groups. The cells were cultured at 37° C in an incubator. After 1 day of incubation the culture medium of the tubes was removed and 1 ml of each culture medium containing compound shown in Table I was added thereto. After additional 3 days of incubation the culture medium was removed and the cells were then treated with 1 ml of 0.1 M citric acid containing 0.1% crystal violet. The number of cells was counted with a hemocytometer in quadruplicate after vigorous shaking.
# (§2) Method: The culture procedure for chick embryo heart cells was employed as described in Experiment 1. After 3 days of incubation, the culture medium was removed and 1 ml of each culture medium containing compounds shown in Table II was added thereto. After an additional 1 day of incubation the number of cells was counted.
# [3] = test system: pylorus ligation ulcer; assay: Effect on pylorus ligation ulcer in rats (Experiments 6 and 7); assay type: in vivo, Male Wister rats; settings: Experiment 6, 50 mg/kg, p.o.; for Mean ulcer index ± S.E.: 10 hours from ligation
# Protocol: a. Effect of S-inosylcysteine on pylorus ligation ulcer.
# Method: Male Wister rats (Keari Gifu-Lab.), aged 7 weeks were used. After fasting for 48 hours, rats weighing 210 to 230 g were divided into 6 groups of 10 rats. The pylorus of stomach was ligated under light anesthesia with pentobarbital sodium (25 mg per kg, i.p.). Immediately after the ligation, a psysiological saline was orally administered to one group and a solution of each tested compound (50 mg per kg) was orally administered to the remaining 5 groups. After these rats were kept without food and water for 10 hours from the ligation, the stomach was removed under anesthesia with pentobarbital sodium (30 mg per kg, i.p.). The gastric contents were aspirated and the stomach was fixed by means of the injection of 10 ml of a 2% formalin solution into the lumen. The stomach was opened along its greater curvature. The severity of the lesion of the rumen, that is, the degree of ulcer was expressed as ulcer index according to the method of Yokotani (Folia pharmacol. Japon. 56, 1373, (1960). The results are shown in Table VI.
# *Inhibition rate was calculated as follows: […]
# Method: The same method as described in Experiment 6 was employed. The
# effect of S-inosyl-L-cysteine
# on pylorus ligation ulcer was examined with intramuscular administration.
# [4] = test system: chick embryo heart cells; assay: Effect on proliferation of chick embryo heart cells in the presence of 6-mercaptopurine (Experiment 5); assay type: cell-based; settings: Experiment 5, 20 μg/ml, 6-mercaptopurine 5 μg per ml; for activity at 20 µg/mL: Gallus gallus, 24 h
# Protocol: as §1, §2
# Method: Same as in Experiment 2 except that 6-mercaptopurine (5 μg per
# ml) was added to each culture
# [5] = its control = 100.0, read-out: Growth Rate (%)
# [6] = simultaneous with Experiment 2, read-out: Growth rate (%) with respect to control of Table II
# [7] = Experiment 4, 20 μg/ml, KCN control = 100.0, read-out: Growth rate (%)
# [8] = Experiment 4, 20 μg/ml, simultaneous with Experiment 2, read-out: Growth rate (%) with respect to control of Table II
SMILES,"Cell number ± S.E. ([1]; Experiment 3, 50 μg/ml)","activity at 50 µg/mL ([1]; Experiment 3, 50 μg/ml, KCN control = 100.0, read-out: Growth Rate %) [%]","activity at 50 µg/mL ([1]; Experiment 3, 50 μg/ml, simultaneous with Experiment 1, read-out: Growth rate (%) with respect to control of Table I) [%]","Cell number + S.E. ([2]; Experiment 1, 50 μg/ml, 3 days incubation)","activity at 50 µg/mL ([2]; Gallus gallus, 72 h, Experiment 1, 50 μg/ml, control = 100.0, read-out: Growth rate %) [%]",Inhibition rate (%) of ulcer [3] [%],Mean ulcer index ± S.E. [3],Cell number ± S.E. [4],"activity at 20 µg/mL [4, 5] [%]","activity at 20 µg/mL [4, 6] [%]","Cell number ± S.E. ([1]; Experiment 4, 20 μg/ml)","activity at 20 µg/mL [1, 7] [%]","activity at 20 µg/mL [1, 8] [%]",Cell number ± S.E. [2],"activity at 20 µg/mL ([2]; Gallus gallus, control = 100.0) [%]"
N[C@@H](CS)C(=O)O [L-cysteine],41.9 ± 6.3 ×10^4 cells,131,82.3,50.5 ± 1.3 ×10^4 cells,99.2,–,–,–,–,–,–,–,–,–,–
Nc1ncnc2c1ncn2[C@@H]1O[C@H](CSC[C@H](N)C(=O)O)[C@@H](O)[C@H]1O [S-adenosyl-L-cysteine],–,–,–,–,–,13,12.1 ± 1.2,70.7 ± 1.2 ×10^4 cells,104,86.6,64.2 ± 3.0 ×10^4 cells,97.6,78.7,74.8 ± 4.7 ×10^4 cells,91.7
Nc1ncnc2c1ncn2[C@@H]1O[C@H](CSCC[C@H](N)C(=O)O)[C@@H](O)[C@H]1O [S-adenosyl-L-homocysteine],–,–,–,–,–,19,11.3 ± 0.7,75.7 ± 1.6 ×10^4 cells,111,92.8,65.2 ± 1.8 ×10^4 cells,99.1,79.9,71.5 ± 3.4 ×10^4 cells,87.6
Nc1nc2c(ncn2[C@@H]2O[C@H](CSCC[C@H](N)C(=O)O)[C@@H](O)[C@H]2O)c(=O)[nH]1 [S-guanosyl-L-homocysteine],–,–,–,–,–,-8,15.0 ± 1.8,72.3 ± 5.5 ×10^4 cells,106,88.6,66.3 ± 1.4 ×10^4 cells,101,81.3,69.2 ± 1.8 ×10^4 cells,84.8
